{
  "source": "patent US8895579B2",
  "about": "“Heterotricyclic AMPA receptor antagonists for treatment of epilepsy, pain, and other neurological disorders and diseases” (Northwestern University, priority 2010, dated 2014)",
  "key": {"[1]": {"biological_target": "T1, kainate receptor EPSCs, CA3 pyramidal neurons (Mus musculus, UniProt P39087+Q61626+Q8BMF5)", "T1 construct": "whole-cell voltage clamp recording from mouse acute brain slices; from tissue; host or cells: acute hippocampal slices, P15-21 C57Bl/6 mice, CA3 pyramidal neurons", "T1 sequence (P39087 32-908)": "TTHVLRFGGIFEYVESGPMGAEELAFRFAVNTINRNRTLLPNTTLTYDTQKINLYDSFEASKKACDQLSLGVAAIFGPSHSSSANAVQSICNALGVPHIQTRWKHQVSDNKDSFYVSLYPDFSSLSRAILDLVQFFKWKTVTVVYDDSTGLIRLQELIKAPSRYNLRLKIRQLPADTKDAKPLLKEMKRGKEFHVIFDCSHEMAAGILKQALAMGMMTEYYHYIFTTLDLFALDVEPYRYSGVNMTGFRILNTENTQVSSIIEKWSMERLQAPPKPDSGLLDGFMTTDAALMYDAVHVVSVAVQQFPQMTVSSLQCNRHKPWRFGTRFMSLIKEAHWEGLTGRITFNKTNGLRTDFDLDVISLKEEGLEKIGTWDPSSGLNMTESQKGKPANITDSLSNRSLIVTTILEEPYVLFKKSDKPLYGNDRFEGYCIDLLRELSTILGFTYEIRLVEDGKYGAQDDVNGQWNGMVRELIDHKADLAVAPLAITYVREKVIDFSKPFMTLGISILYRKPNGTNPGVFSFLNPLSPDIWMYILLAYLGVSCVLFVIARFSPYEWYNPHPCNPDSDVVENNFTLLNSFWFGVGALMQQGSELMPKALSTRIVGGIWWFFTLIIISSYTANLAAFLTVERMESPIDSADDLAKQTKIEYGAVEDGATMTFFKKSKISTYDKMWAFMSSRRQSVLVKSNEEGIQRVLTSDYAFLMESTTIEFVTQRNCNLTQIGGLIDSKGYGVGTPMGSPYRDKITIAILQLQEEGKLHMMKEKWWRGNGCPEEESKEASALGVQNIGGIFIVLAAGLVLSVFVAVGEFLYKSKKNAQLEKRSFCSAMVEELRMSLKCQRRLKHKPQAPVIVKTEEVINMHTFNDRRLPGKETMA", "T1 sequence (Q8BMF5 21-956)": "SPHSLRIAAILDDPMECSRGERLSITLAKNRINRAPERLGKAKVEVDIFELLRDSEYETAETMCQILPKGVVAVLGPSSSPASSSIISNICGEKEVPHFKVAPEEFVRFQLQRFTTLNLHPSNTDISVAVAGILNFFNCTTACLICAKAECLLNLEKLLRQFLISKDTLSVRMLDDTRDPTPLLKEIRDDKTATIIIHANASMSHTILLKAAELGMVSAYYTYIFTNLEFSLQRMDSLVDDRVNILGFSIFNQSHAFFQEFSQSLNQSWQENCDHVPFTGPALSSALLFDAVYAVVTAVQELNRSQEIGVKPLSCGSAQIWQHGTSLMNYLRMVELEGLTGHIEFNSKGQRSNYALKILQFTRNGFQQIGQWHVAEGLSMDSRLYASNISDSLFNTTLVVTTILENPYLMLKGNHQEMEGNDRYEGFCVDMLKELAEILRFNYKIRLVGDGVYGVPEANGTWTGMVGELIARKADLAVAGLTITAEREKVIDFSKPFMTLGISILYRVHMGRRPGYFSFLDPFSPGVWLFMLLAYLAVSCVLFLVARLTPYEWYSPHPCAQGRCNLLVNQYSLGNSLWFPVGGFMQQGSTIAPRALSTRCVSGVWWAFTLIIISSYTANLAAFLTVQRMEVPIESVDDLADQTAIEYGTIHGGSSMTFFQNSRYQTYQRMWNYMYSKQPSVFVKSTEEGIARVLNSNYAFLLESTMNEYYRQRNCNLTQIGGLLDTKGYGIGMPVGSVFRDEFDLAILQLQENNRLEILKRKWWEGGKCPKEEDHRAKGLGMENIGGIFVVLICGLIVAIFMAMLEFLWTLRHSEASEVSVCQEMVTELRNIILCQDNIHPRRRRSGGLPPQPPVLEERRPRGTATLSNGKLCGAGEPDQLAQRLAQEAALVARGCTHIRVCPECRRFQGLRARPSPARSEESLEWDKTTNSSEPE", "T1 sequence (Q61626 15-979)": "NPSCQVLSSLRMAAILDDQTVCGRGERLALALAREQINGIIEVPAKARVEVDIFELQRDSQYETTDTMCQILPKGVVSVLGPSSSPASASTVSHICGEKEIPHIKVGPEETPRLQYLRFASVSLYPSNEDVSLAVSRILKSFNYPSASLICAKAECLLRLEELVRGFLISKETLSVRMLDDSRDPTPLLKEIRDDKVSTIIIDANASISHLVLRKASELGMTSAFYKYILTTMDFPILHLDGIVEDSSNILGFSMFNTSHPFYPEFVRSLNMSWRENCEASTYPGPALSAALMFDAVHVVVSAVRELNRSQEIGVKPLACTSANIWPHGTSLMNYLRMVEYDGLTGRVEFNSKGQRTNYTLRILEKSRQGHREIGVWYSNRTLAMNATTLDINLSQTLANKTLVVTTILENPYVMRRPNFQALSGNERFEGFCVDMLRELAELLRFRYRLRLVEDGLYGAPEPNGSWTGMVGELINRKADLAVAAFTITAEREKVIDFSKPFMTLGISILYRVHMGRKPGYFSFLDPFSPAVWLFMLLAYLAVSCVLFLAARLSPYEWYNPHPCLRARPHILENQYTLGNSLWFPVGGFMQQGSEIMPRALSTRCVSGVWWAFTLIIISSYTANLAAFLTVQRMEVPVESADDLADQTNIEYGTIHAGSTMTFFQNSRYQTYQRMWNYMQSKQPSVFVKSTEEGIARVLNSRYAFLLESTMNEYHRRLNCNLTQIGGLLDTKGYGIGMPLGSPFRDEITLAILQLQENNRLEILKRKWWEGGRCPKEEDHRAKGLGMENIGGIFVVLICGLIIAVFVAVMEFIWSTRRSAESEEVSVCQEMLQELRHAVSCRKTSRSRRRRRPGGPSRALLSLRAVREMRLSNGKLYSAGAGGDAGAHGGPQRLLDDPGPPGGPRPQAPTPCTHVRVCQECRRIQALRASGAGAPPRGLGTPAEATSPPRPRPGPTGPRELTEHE", "assay": "Kainate receptor EPSCs at mossy fiber-CA3 synapses, acute hippocampal slices", "type": "cell-based", "settings": "20 μM", "protocol": "For recordings from acute hippocampal slices, brains from P15-21 C57Bl/6 mice were sliced transversely (350 μm thickness) in a sucrose slicing solution containing (in mM) 85 NACl, 2.5 KCl, 1.25 NaH2PO4, 25 NaHCO3, 25 glucose, 75 sucrose, 0.5 CaCl2, 4 MgCl2, 0.5 Na ascorbate, 10 μM DL-APV and 100 μM kynurenic acid (pH 7.3). After slicing, the solution was exchanged with an incubation solution containing (in mM) 125 NaCl, 2.4 KCl, 1.2 NaH2PO4, 25 NaHCO3, 25 glucose: 1 CaCl2, 2 MgCl2, 0.5 Na ascorbate, 10 μM DL-APV and 100 μM kynurenic acid (pH 7.3) that was bubbled continuously with CO2-balanced O2 (carbogen). […] Recordings in voltage clamp mode used the CsF/CsCl internal solution and carbogenated external recording solution containing (in mM) 120 NaCl, 2.4 KCl, 2 MgCl2, 1 CaCl2, 25 NaHCO3, 1.2 NaH2PO4, 25 glucose, 10 μM bicuculline methiodide, 50 μM PTX and 50 μM D-APV (pH 7.3). […] NMDA EPSCs were validated by addition of D-APV (50 μM) at the end of each recording. […] IKM compounds were applied for 10 minutes and changes in the peak amplitudes of excitatory post-synaptic currents (EPSCs) and paired-pulse ratios were analyzed during the last two minutes of drug application. EPSC charge transfer, AP frequency, paired-pulse ratio and EPSC peak amplitude were analyzed with Mini-Analysis v6.03 (Synaptosoft, Decatur, Ga.) and Clampfit v10.0 (MDS, Sunnyvale, Calif.) software."}, "[2]": {"biological_target": "T2, homomeric GluK1-2b kainate receptor (Rattus norvegicus, UniProt P22756)", "T2 construct": "myc; expressed in transfected cells; host or cells: HEK293-T/17 (CRL-11268)", "T2 sequence (P22756 31-905 isoform P22756-2 limits assumed)": "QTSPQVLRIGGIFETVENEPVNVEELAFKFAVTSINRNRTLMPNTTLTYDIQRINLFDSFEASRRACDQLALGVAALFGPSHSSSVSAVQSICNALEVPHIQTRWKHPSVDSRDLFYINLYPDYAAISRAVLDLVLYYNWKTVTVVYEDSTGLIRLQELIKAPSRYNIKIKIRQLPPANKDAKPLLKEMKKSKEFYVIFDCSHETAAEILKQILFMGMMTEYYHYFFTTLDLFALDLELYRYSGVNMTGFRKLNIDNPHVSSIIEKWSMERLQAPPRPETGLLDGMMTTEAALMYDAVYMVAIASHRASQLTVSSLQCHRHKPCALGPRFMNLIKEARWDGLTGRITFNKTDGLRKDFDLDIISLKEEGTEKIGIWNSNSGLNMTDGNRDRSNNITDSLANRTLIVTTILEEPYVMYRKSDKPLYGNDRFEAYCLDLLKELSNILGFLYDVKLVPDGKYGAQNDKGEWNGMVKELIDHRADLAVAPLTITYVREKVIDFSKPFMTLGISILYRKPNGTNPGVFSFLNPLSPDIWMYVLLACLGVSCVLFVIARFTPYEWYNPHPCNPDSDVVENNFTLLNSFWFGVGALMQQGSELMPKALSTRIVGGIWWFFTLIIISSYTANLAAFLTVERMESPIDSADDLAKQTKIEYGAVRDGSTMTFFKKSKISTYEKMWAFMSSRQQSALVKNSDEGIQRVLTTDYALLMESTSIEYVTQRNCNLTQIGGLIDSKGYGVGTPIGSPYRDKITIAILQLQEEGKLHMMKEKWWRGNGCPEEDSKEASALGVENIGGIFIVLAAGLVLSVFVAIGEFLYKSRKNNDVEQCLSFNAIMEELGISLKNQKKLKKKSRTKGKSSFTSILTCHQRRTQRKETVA", "assay": "Whole-cell patch clamp of recombinant GluK1-2b receptors in HEK293-T/17 cells", "type": "cell-based", "settings": "30 μM; 10 mM glutamate", "protocol": "Cell Culture and Transfection. Human embryonic kidney cells expressing T-antigen, clone 17 (HEK293-T/17) (CRL-11268) were cultured at 37° C. with 5% CO2 in DMEM, including 100 μg/mL penicillin, 100 μg/mL streptomycin, and 10% heat-inactivated fetal bovine serum. Cells were split twice per week. For transfection, HEK293-T/17 cells were plated at 3×10^4 cells/cm^2 for pharmacology experiments and 5×10^3 cells/cm^2 for physiology experiments in fresh medium 24 h prior to transfection. Cells were transfected with AMPA or KA receptor plasmid cDNAs using Mirus Trans-IT transfection reagent (Minus Bio Corporation, Madison, Wis.) at a ratio of 1 μg cDNA: 3 μL Trans-1T reagent and maintained in transfection medium overnight followed by a media change the next day. Transfected cells were maintained in this medium until the experiment was conducted (48-72 h total post transfection).\nElectrophysiology. For analysis of recombinant receptors, HEK293-T/17 cells were co-transfected with 0.2 μg of iGluR cDNA and 0.05 μg of eGFP. For heterologous GluA1/GluA2 receptors, the GluA1:GluA2 cDNA ratio was 1:6. Two to three days post-transfection, eGFP-expressing cells were lifted from the cover slip and voltage clamped in whole cell mode. […]"}, "GluK2a": {"biological_target": "T3, GluK2a (Rattus norvegicus, UniProt P42260)", "T3 construct": "myc; expressed in transfected cells; host or cells: HEK293-T/17 (CRL-11268)", "T3 sequence (P42260 32-908)": "as the sequence (P39087 32-908) above, with S377A counted along it", "assay": "[3H]-KA radioligand binding, membranes of HEK293-T/17 cells expressing GluK2a", "settings": "10 nM [3H]-KA, 1 h at 4° C., read-out: [3H]KA bound as percent of total (specific) binding in absence of competing ligand", "protocol": "Radioligand binding. HEK293-T/17 cells were transfected with 5 μg of iGluR cDNA in 100 mm^2 culture dishes. Two days post transfection, the plates were washed twice with ice-cold Dulbecco's phosphate-buffered saline (DPBS) and then incubated with 50 mM Tris (pH 7.4) and 1 mM EDTA for three minutes on ice. Cells were collected and centrifuged for five minutes at 800 g at room temperature. The cell pellet was homogenized in 50 mM Tris (pH 7.4) containing 320 mM sucrose (homogenization buffer, HB) on ice using a glass dounce homogenizer and centrifuged at 4° C. for 10 minutes at 800 g. The supernatant, containing the membrane fragments, was saved and the remaining pellet containing nuclei and unbroken cells was resuspended in HB. This homogenization process was repeated two more times and after collection of the final resulting supernatant, the remaining pellet was discarded. The collected supernatants were centrifuged at 4° C. for 20 minutes at 20000 g and the resulting supernatant was discarded leaving a membrane-containing pellet. […] Non-specific binding was determined as the amount of radioligand bound in the presence of a saturating concentration of glutamate (1 mM). Total binding was determined as the amount of radioligand bound in the absence of any competing ligands minus the non-specific binding. […]"}},
  "note": "Entries after “also recorded” stand apart in the source; their conditions may differ.",
  "data": [
    {"smiles": "O=C(O)C[C@@]12O[C@H]3C=CCN[C@H]3C1CN[C@H]2C(=O)O", "note": "(stereo partly drawn) [IKM-159]", "values": [
      {"measurement": "effect on kainate receptor EPSC peak amplitude", "setting": "[1]", "value": "did not alter the mean amplitude; also recorded: did not alter the typical run-down in amplitude"},
      {"measurement": "GluK1-2b peak amplitude as percent of basal peak glutamate current", "setting": "[2]", "value": "90±10", "unit": "%"},
      {"measurement": "activity at 100 µM", "setting": "GluK2a", "value": "98 ± 4", "unit": "%"}
    ]}
  ]
}
